How the values were obtained:
NCI-H716 cells = assay: In vitro GLP-1 secretion in differentiated NCI-H716 cells (ELISA); assay type: cell-based, human; settings: for fold induction at 100 µM: Homo sapiens, NCI-H716, 0.5 h, compound at 100 μM for 30 minutes, differentiated NCI-H716 cells, read-out: GLP-1 RELEASE NCI, fold of increase over DMSO
Procedure: (§1) GPR120/40 Activation: In Vitro GLP-1 Secretion
(§2) 2×10^5 STC-1 cells were seeded in a 12-plate and 24 hours later were treated with selected compounds. 1×10^6 NCI-H716 cells were differentiated in matrigel-coated 12-plate and treated 48 h hours later.
(§3) The day of the experiment, wells were washed once with 1 ml of PBS and then cells were stimulated with 0.5 ml of DMEM (w/o serum, w/o phenol-red) containing 30 μM of selected compounds in STC1 and 100 μM in differentiated NCIH716 for 30 minutes. DMSO has been used as negative control, α-linolenic acid (ALA) (endogenous agonist) as positive control. After stimulations, supernatants were collected, centrifuged at 4000 rpm for 4′ at 4° C., and used for the GLP1 detection by ELISA.

human GPR120 = target: T1, human GPR120 (Homo sapiens, UniProt Q5NUL3); assay: In vitro Ca2+ mobilization, CHO-k1 cells stably expressing human GPR120; assay type: cell-based; settings: for AC50: intracellular calcium, CHO-k1 cells expressing human GPR120, read-out: Ca2+ hGPR120 AC50
T1 construct: expressed in transfected cells; host or cells: CHO-k1
T1 sequence (Q5NUL3 1-361): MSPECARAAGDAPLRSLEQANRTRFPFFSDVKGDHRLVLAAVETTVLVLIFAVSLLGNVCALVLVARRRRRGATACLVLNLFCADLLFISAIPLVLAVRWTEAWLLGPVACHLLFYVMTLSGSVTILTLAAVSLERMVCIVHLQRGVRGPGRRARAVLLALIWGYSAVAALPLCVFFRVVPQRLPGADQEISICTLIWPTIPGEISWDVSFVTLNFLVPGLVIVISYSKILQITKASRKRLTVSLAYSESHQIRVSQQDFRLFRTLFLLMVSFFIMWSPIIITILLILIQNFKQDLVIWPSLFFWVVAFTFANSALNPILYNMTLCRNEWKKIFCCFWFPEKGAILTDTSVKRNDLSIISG
Procedure: (§4) GPR120/40 Activation: In Vitro Ca^2+ Mobilization
(§5) The activation of GPR120/40 by all compounds was determined by measuring changes in intracellular calcium levels using a Ca^2+ sensitive fluorescent dye.
(§6) The experiments were performed using CHO-k1 cells stably expressing the human GPR120 or GPR40. Cells were seeded 10000 cells/well in 384-plates in complete medium and grown overnight at 37° C., 5% CO2. 24 h after seeding, cell culture media was removed and cells were loaded with the fluorescent Ca^2+ indicator (Fluo-8 NW dye in Tyrode's buffer). Dye-loaded cell plates were incubated for 1 h at room temperature under a yellow light sodium lamp.
(§7) Cell were treated with test compounds and controls at 10, 30 and 60 μM. The kinetic response was monitored over a period of 7 minutes (using FLIPRTETRA system). A second injection of 3× concentrated reference agonist at ˜EC50 were then administered to cells and the signal of the emitted fluorescence was measured over a period of additional 3 minutes. The agonist effect is expressed as a percentage of activation, with 100% activation being a result in which the Response Values of the test wells reach a level identical to the one of the Stimulator Controls (alpha linolenic acid reference agonist EC100). 0% activation is a result in which the Response Values of the test wells reach a level identical to the one of the Neutral Controls (assay buffer) in the AGO_KRV (Agonist Kinetic Response Value) response value.

human GPR40 = target: T2, human GPR40 (Homo sapiens, UniProt O14842); assay: In vitro Ca2+ mobilization, CHO-k1 cells stably expressing human GPR40; assay type: cell-based; settings: for AC50: intracellular calcium, CHO-k1 cells expressing human GPR40, read-out: Ca2+ hGPR40 AC50
T2 construct: expressed in transfected cells; host or cells: CHO-k1
T2 sequence (O14842 whole entry): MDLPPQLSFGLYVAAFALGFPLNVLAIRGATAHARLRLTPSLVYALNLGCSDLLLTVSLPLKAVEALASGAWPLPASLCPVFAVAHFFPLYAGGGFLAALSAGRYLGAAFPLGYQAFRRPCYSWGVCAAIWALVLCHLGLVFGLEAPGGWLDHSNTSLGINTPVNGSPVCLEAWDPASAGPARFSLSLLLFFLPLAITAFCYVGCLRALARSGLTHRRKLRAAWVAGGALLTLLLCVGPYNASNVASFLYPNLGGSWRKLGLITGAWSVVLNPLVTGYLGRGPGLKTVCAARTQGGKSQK
Procedure: as §4, §5, §6, §7

STC-1 cells = assay: In vitro GLP-1 secretion in STC-1 cells (ELISA); assay type: cell-based, murine; settings: for fold induction at 30 µM: Mus musculus, STC-1, 0.5 h, compound at 30 μM for 30 minutes, STC-1 cells, read-out: GLP-1 RELEASE STC-1, fold of increase over DMSO
Procedure: as §1, §2, §3

Row | SMILES | fold induction at 100 µM (NCI-H716 cells) | AC50 (human GPR120) | AC50 (human GPR40) | fold induction at 30 µM (STC-1 cells) | GLP-1 secretion in NCI-H716 (human) cells, in words (NCI-H716 cells) | agonistic activity on GPR120 (AC50 in the calcium mobilization assay), in words (human GPR120) | agonistic activity on GPR40 (AC50 in the calcium mobilization assay), in words (human GPR40) | GLP-1 secretion in STC1 (murine) cells, in words (STC-1 cells)
1 | CCn1ncc(NS(=O)(=O)c2cccc(CCCCCCC(=O)O)c2)n1 [Example 26, 7-(3-(N-(2-ethyl-2H-1,2,3-triazol-4-yl)sulfamoyl)phenyl)heptanoic acid] | 2.81 ± 0.72 | 18.9 µM | 20.1 µM | 1.82 ± 0.41 | – | – | – | –
2 | Cc1nnc(C)n1NS(=O)(=O)c1cccc(CCCCCCC(=O)O)c1 [Example 21, 7-(3-(N-(3,5-dimethyl-4H-1,2,4-triazol-4-yl)sulfamoyl)phenyl)heptanoic acid] | 2.57 ± 0.91 | 17 µM | 7.9 µM | 2.23 ± 0.98 | – | – | – | –
3 | Cc1nc(NS(=O)(=O)c2cccc(CCCCCCC(=O)O)c2)oc1C [Example 15, 7-(3-(N-(4,5-dimethyloxazol-2-yl)sulfamoyl)phenyl)heptanoic acid] | 1.8 ± 0.91 | 24.1 µM | 27.5 µM | 1.19 ± 0.89 | – | – | – | –
4 | Cc1cc(F)cc(-c2ccccc2)c1NS(=O)(=O)c1cccc(CCCCCCC(=O)O)c1 [Example 10, 7-(3-(N-(5-fluoro-3-methyl-[1,1′-biphenyl]-2-yl)sulfamoyl)phenyl)heptanoic acid] | 2.5 | 16.5 µM | 12.8 µM | 4.7 | efficacious | low microMolar range | low microMolar range | efficacious
5 | Cc1nnc(NS(=O)(=O)c2cccc(CCCCCCC(=O)O)c2)s1 [Example 18, 7-(3-(N-(5-methyl-1,3,4-thiadiazol-2-yl)sulfamoyl)phenyl)heptanoic acid] | 1.25 ± 0.8 | 27.8 µM | 22.4 µM | 1.98 ± 0.37 | – | – | – | –
6 | CC1COC(NS(=O)(=O)c2cccc(CCCCCCC(=O)O)c2)=N1 (stereo not shown) [Example 28, 7-(3-(N-(4-methyl-4,5-dihydrooxazol-2-yl)sulfamoyl)phenyl)heptanoic acid] | 3.88 ± 1.96 | 16.1 µM | 7.1 µM | 3.64 ± 0.43 | – | – | – | –
7 | O=C(O)CCCCCCc1cccc(S(=O)(=O)Nc2csnc2-c2ccccc2)c1 [Example 30, 7-(3-(N-(3-phenylisothiazol-4-yl)sulfamoyl)phenyl)heptanoic acid] | 2.13 ± 1.83 | 37.1 µM | 31.2 µM | 2.94 ± 1.12 | – | – | – | –
8 | O=C(O)CCCCCCc1cccc(S(=O)(=O)Nc2cc(-c3ccccc3)ns2)c1 [Example 22, 7-(3-(N-(3-phenylisothiazol-5-yl)sulfamoyl)phenyl)heptanoic acid] | 3.71 ± 0.67 | 10.2 µM | 11.7 µM | 3.13 ± 1.26 | – | – | – | –
9 | O=C(O)CCCCCCc1cccc(S(=O)(=O)Nc2nsc(-c3ccccc3)n2)c1 [Example 16, 7-(3-(N-(5-phenyl-1,2,4-thiadiazol-3-yl)sulfamoyl)phenyl)heptanoic acid] | 1.69 ± 0.14 | 25.9 µM | 17.2 µM | 1.31 ± 0.32 | – | – | – | –
10 | Cc1cc(Br)cc(C)c1NS(=O)(=O)c1cccc(CCCCCCC(=O)O)c1 [Example 7, 7-(3-(N-(4-bromo-2,6-dimethylphenyl)sulfamoyl)phenyl)heptanoic acid] | 1.9 ± 0.15 | 5.72 µM | 19.8 µM | 1.8 ± 0.24 | efficacious | low microMolar range | low microMolar range | efficacious
11 | Cc1cc(OCCCS(C)(=O)=O)cc(C)c1NS(=O)(=O)c1cccc(CCCCCCC(=O)O)c1 [Example 35, 7-(3-(N-(2,6-dimethyl-4-(3(methylsulfonyl)propoxy)phenyl)sulfamoyl)phenyl)heptanoic acid] | 4.2 ± 0.25 | 6.1 µM | 2.3 µM | 4.3 ± 0.61 | – | – | – | –
12 | Cc1cc(F)cc(C)c1C(=O)NS(=O)(=O)c1cccc(CCCCCCC(=O)O)c1 [Example 24, 7-{3-[(4-fluoro-2,6-dimethylbenzoyl)sulfamoyl]phenyl}heptanoic acid] | 5.01 ± 0.99 | 5.9 µM | 13.3 µM | 4.19 ± 0.72 | – | – | – | –
13 | CC/C=C\C/C=C\C/C=C\CCCCCCCC(=O)O [ALA, α-linolenic acid, reference compound] | 1.52 | – | – | 6.61 | – | – | – | –
14 | Cc1nc(C)c(NS(=O)(=O)c2cccc(CCCCCCC(=O)O)c2)s1 [Example 13, 7-(3-(N-(2,4-dimethylthiazol-5-yl)sulfamoyl)phenyl)heptanoic acid] | 1.03 ± 0.17 | 15.2 µM | 23.9 µM | 1.13 ± 0.15 | – | – | – | –
15 | Cc1nc(NS(=O)(=O)c2cccc(CCCCCCC(=O)O)c2)sc1C [Example 14, 7-(3-(N-(4,5-dimethylthiazol-2-yl)sulfamoyl)phenyl)heptanoic acid] | 1.81 ± 0.67 | 17.4 µM | 20.8 µM | 1.37 ± 0.11 | – | – | – | –
16 | Cc1cc(Cl)cc(C)c1NS(=O)(=O)c1cccc(CCCCCCC(=O)O)c1 [Example 4, 7-(3-(N-(4-chloro-2,6-dimethylphenyl)sulfamoyl)phenyl)heptanoic acid] | 1.92 ± 0.57 | 4.36 µM | 41.3 µM | 4.1 ± 0.54 | efficacious | low microMolar range | low microMolar range | efficacious
17 | Cc1cc(OCc2ccccc2)cc(C)c1NS(=O)(=O)c1cccc(CCCCCCC(=O)O)c1 [Example 34, 7-(3-(N-(4-(benzyloxy)-2,6-dimethylphenyl)sulfamoyl)phenyl)heptanoic acid] | 4.58 ± 0.26 | 7 µM | 12.4 µM | 5.5 ± 0.73 | – | – | – | –
18 | Cc1nnc(NS(=O)(=O)c2cccc(CCCCCCC(=O)O)c2)[nH]1 [Example 20, 7-(3-(N-(5-methyl-4H-1,2,4-triazol-3-yl)sulfamoyl)phenyl)heptanoic acid] | 3.31 ± 0.28 | 6.5 µM | 8.2 µM | 3.36 ± 0.37 | – | – | – | –
